One data set deals with rhinovirus B5. It is filed as cell-based. To be noted: HeLa cells, CPE inhibition, 72 h post infection; n/a = not active (max 100 μM).
For data set [1], the system named is coxsackievirus B3 97927 I1207K I1092. It is filed as cell-based.
In a further data set the test system is coxsackievirus B3 Nancy. It counts as cell-based. To be noted: HeLa cells, CPE inhibition, 48 h post infection; n/a = not active (max 100 μM).
A further data set has as its system E. coli PQ37. As to the kind of experiment: microbe, parasite or virus in culture. To be noted: Escherichia coli. It is filed as cell-based.
Data set [2] in a line: Pharmacokinetic study in mice after intragastric administration. It is filed as in vivo.
Another data set has as its system CYP3A4. To be noted: human, hepatocytes.
The test system of the next data set is rhinovirus B14. It counts as cell-based. To be noted: HeLa cells, CPE inhibition, 72 h post infection; n/a = not active (max 100 μM).

Nine compounds from publication PMC7002245 (European journal of medicinal chemistry, 2019) can be followed below.

Like-named read-outs stand apart in the source and are kept apart here.

In the case of `COC(=O)c1cc(CCCOc2c(C)cc(-c3noc(C(F)(F)F)n3)cc2C)on1` [6a, 3-(3,5-Dimethyl-4-(3-(3-carbmethoxy-isoxazol-5-yl)propoxy)phenyl)-5-trifluoromethyl-1,2,4-oxadiazole], the “IC50 towards rhinovirus B5” value in the data set with rhinovirus B5 is “no activity”.

On to `CCOC(=O)c1cc(CCCOc2ccc(-c3noc(C(F)(F)F)n3)cc2)on1` [6c, 3-(4-(3-(3-Carbethoxy-isoxazol-5-yl)propoxy)phenyl)-5-trifluoromethyl-1,2,4-oxadiazole], for which, in data set [1], the “IC50 towards coxsackievirus B3 97927 I1207K I1092” value is “inactive”. Moreover, the “IC50 towards coxsackievirus B3 Nancy” value with coxsackievirus B3 Nancy was “inactive”. Moreover, in the data set on rhinovirus B5, the “IC50 towards rhinovirus B5” value was “inactive”.

The term zone of inhibition denotes the size of the clear area around the sample on an inoculated plate. Read a low zone of inhibition as a weaker effect on the plate. Compound `CNC(=O)c1cc(CCCOc2c(C)cc(-c3noc(C(F)(F)F)n3)cc2C)on1` [10b, 3-(3,5-Dimethyl-4-(3-(3-methylcarbamoyl-isoxazol-5-yl)propoxy)phenyl)-5-trifluoromethyl-1,2,4-oxadiazole] gave a zone of inhibition at 10000 µg/mL in the data set on E. coli PQ37 of 0 mm.

Compound `Cc1cc(-c2noc(C(F)(F)F)n2)cc(C)c1OCCCc1cc(C(=O)N(C)C)no1` [10e, 3-(3,5-Dimethyl-4-(3-(3-N,N-dimethylcarbamoyl-isoxazol-5-yl)propoxy)phenyl)-5-trifluoromethyl-1,2,4-oxadiazole] returned a zone of inhibition at 10000 µg/mL with E. coli PQ37 of 0 mm.

As for `Cc1cc(-c2noc(C(F)(F)F)n2)ccc1OCCCc1cc(C(=O)N(C)C)no1` [10g, 3-(3-Methyl-4-(3-(3-N,N-dimethylcarbamoyl-isoxazol-5-yl)propoxy)phenyl)-5-trifluoromethyl-1,2,4-oxadiazole], the bioavailability entry in data set [2] (100 mg/kg intragastric) was “very high bioavailability”. Also, the CL in data set [2] (100 mg/kg single dose intragastric, CL = dose/AUC0-∞) amounted to 0.66 h⁻¹. Further, in the data set on E. coli PQ37, the zone of inhibition at 10000 µg/mL was 0 mm. Also, the “induction of CYP3A4 (fold)” value is given as 1.2 x in the data set on CYP3A4 (1 μM) and 1.4 x in the data set on CYP3A4 (10 μM). In addition, the “induction of CYP3A4, % of control” value in the data set on CYP3A4 (1 μM) is recorded as 3%; with CYP3A4 (10 μM), 7%.

`CN(C)C(=O)c1cc(CCCOc2ccc(-c3noc(C(F)(F)F)n3)cc2[N+](=O)[O-])on1` [10i, 3-(3-Nitro-4-(3-(3-N,N-dimethylcarbamoyl-isoxazol-5-yl)propoxy)phenyl)-5-trifluoromethyl-1,2,4-oxadiazole] showed a zone of inhibition at 10000 µg/mL with E. coli PQ37 of 0 mm.

In turn, `CN(C)C(=O)c1cc(CCCOc2ccc(-c3noc(C(F)(F)F)n3)cc2C(F)(F)F)on1` [10k, 3-(3-Trifluoromethyl-4-(3-(3-N,N-dimethylcarbamoyl-isoxazol-5-yl)propoxy)phenyl)-5-trifluoromethyl-1,2,4-oxadiazole] showed a zone of inhibition at 10000 µg/mL in the data set with E. coli PQ37 of 0 mm.

For the compound `CNC(=O)c1cc(CCCOc2ccc(-c3noc(C(F)(F)F)n3)cc2C(F)(F)F)on1` [10m, 3-(3-Trifluoromethyl-4-(3-(3-methylcarbamoyl-isoxazol-5-yl)propoxy)phenyl)-5-trifluoromethyl-1,2,4-oxadiazole], the “IC50 towards coxsackievirus B3 97927 I1207K I1092” value in data set [1] is recorded as “no activity”. Also, the “IC50 towards rhinovirus B5” value with rhinovirus B5 is reported as “did not totally inhibit”. Further, the “IC50 towards rhinovirus B14” value with rhinovirus B14 is “did not totally inhibit”.

Regarding `Cc1cc(CCCOc2c(C)cc(-c3noc(C(F)(F)F)n3)cc2C)on1` [P, pleconaril, reference compound], the “induction of CYP3A4, % of control” value was determined as 13% in the data set on CYP3A4 (1 μM) and 30% in the data set on CYP3A4 (10 μM).
